# Experimental data from the supplement of paper PMC12463676, “Small-molecule dissolution of stress granules by redox modulation benefits ALS models” (Nature Chemical Biology, 2025).
# Legend:
# [1] = compound: NC(=O)CCCCC1CCSS1 [lipoamide]; assay: thermal stability z-score vs DMSO; higher = more thermally stabilized by treatment; conditions: HeLa, lipoamide concentration 100 µM
# Method: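 Cellular thermal proteome profiling in HeLa cells. Cells were treated with 100 µM lipoamide for 1 h, with or without 1 mM arsenate for a further 1 h, then heated to ten temperatures (37-66.3 °C), and soluble protein was quantified by TMT mass spectrometry relative to 0.1% DMSO controls. The thermal stability score (sum of log2 fold changes minus the abundance score) was transformed to a z-score; mean of n = 3 experiments.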
# [2] = compound: O=[As]([O-])(O)O.[K+] [potassium arsenate]; assay: as above; conditions: HeLa; arsenate concentration 1 mM
# Method: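 Cellular thermal proteome profiling in HeLa cells treated with 1 mM arsenate for 1 h (DMSO pretreatment), heated to ten temperatures (37-66.3 °C). Soluble protein was quantified by TMT mass spectrometry relative to DMSO controls; the thermal stability score was transformed to a z-score; mean of n = 3 experiments.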
# [3] = arsenate co-treatment: 1 mM arsenate 1 h
# 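Note: each temperature applied for 3 min, abundance score taken as mean log2 fold change at the two lowest temperatures, z-score obtained by mean subtraction and division by SD.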
# Sequence of UniProt P51571 (P51571 whole entry): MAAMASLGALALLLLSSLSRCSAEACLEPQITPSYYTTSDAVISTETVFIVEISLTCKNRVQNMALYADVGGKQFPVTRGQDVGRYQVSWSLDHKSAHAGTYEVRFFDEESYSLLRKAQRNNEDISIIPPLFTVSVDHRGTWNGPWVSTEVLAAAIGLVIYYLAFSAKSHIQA
# Sequence of UniProt Q9UPN7 (Q9UPN7 whole entry): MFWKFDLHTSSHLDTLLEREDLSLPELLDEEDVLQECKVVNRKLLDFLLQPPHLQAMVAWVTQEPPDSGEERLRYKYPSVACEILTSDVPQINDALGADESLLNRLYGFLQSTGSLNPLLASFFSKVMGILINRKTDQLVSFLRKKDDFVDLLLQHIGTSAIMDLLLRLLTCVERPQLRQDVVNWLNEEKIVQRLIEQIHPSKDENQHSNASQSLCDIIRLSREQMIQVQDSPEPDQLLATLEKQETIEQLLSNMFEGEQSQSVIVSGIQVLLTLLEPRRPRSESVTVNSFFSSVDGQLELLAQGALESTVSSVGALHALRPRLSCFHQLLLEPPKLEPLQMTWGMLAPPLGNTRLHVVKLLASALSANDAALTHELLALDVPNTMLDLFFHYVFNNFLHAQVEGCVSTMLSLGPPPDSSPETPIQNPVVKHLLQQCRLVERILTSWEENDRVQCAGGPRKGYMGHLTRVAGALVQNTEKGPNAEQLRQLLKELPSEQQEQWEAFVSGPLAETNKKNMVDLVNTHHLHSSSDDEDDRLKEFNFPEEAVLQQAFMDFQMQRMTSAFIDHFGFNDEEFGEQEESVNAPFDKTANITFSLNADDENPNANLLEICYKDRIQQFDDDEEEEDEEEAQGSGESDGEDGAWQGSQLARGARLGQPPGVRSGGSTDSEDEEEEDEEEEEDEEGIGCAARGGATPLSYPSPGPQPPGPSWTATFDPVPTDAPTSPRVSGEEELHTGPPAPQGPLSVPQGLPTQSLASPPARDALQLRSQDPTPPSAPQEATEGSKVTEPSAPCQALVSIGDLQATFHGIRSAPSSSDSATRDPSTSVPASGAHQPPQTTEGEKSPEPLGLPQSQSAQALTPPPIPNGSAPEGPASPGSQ
# Sequence of UniProt Q8TEH3 (Q8TEH3 whole entry): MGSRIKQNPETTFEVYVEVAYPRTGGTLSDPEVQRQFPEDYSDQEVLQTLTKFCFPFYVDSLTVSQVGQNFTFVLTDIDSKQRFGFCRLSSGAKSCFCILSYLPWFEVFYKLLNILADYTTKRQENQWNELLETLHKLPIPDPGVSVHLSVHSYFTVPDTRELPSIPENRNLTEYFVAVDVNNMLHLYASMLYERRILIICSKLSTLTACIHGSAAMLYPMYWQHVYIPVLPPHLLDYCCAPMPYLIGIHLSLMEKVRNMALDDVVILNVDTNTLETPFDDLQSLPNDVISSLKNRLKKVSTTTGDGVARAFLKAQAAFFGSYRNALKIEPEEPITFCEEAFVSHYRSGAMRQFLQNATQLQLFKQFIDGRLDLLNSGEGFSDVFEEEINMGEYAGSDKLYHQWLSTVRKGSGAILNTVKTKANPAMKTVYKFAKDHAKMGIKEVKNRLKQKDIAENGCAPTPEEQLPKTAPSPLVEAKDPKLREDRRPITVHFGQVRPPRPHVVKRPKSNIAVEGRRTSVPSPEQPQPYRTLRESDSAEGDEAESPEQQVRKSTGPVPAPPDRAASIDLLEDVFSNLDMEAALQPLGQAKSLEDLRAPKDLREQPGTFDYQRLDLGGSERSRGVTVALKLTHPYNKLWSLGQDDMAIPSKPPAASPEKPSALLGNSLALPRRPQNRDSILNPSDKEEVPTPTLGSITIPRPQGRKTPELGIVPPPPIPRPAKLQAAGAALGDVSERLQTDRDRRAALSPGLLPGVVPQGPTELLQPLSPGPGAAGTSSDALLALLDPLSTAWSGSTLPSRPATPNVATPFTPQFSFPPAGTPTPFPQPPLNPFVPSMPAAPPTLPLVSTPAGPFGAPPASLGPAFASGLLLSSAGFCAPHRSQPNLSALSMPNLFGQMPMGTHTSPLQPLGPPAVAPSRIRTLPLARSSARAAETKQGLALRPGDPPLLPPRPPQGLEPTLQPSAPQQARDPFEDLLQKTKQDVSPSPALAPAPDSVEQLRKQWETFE
# Sequence of UniProt Q13685 (Q13685 whole entry): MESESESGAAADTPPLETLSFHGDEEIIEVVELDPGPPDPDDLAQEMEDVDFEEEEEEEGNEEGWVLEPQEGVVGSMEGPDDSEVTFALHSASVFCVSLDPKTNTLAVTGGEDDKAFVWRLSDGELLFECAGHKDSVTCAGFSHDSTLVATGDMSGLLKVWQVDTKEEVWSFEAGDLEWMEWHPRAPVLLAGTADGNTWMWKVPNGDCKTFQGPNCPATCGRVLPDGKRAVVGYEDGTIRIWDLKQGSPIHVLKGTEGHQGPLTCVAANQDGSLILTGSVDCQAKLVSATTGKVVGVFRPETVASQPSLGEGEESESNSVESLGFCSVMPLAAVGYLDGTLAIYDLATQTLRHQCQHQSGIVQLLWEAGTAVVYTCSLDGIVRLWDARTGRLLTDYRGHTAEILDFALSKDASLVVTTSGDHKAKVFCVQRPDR
# Sequence of UniProt P43034 (P43034 whole entry): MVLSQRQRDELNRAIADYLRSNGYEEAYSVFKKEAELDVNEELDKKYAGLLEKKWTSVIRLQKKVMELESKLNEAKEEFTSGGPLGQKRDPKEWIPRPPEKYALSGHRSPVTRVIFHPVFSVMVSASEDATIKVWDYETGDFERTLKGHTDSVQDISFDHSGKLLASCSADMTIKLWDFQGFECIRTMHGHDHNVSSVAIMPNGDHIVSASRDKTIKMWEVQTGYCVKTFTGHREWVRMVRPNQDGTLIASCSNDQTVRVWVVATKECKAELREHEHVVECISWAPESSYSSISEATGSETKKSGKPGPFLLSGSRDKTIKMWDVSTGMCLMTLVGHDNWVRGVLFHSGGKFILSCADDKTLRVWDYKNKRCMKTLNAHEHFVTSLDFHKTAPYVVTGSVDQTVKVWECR
# Sequence of UniProt Q7L5N7 (Q7L5N7 whole entry): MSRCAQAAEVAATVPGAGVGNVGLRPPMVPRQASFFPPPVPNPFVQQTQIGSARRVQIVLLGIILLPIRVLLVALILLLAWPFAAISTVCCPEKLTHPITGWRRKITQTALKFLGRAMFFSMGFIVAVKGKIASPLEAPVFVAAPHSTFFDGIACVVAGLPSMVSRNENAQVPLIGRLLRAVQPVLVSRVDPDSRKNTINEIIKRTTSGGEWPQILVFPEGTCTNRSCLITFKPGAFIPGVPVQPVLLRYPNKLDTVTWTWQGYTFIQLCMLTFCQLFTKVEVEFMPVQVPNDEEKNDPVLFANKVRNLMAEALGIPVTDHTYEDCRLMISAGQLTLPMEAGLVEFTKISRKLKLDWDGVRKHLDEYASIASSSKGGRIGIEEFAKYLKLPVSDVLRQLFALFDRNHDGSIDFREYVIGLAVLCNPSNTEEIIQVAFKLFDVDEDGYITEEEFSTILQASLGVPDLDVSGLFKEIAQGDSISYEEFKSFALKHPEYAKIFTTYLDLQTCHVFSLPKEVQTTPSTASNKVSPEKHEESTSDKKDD
# Sequence of UniProt P50583 (P50583 whole entry): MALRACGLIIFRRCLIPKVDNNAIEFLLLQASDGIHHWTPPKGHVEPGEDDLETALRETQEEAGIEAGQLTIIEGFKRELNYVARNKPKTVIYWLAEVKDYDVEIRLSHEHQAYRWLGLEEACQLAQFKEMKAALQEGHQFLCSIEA
# Sequence of UniProt Q8NC56 (Q8NC56 whole entry): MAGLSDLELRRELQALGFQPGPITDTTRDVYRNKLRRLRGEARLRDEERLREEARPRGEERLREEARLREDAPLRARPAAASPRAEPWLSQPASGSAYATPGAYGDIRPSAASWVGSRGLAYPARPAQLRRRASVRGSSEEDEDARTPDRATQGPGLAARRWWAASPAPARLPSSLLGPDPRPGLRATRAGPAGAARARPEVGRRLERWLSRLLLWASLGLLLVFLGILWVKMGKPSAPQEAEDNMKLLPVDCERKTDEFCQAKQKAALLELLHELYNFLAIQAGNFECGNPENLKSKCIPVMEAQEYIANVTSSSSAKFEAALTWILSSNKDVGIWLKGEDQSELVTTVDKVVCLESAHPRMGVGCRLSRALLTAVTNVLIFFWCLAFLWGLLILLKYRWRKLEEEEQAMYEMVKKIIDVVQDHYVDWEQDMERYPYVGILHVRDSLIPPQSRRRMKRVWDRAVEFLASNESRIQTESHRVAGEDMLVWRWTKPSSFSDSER
# Sequence of UniProt P60484 (P60484 whole entry): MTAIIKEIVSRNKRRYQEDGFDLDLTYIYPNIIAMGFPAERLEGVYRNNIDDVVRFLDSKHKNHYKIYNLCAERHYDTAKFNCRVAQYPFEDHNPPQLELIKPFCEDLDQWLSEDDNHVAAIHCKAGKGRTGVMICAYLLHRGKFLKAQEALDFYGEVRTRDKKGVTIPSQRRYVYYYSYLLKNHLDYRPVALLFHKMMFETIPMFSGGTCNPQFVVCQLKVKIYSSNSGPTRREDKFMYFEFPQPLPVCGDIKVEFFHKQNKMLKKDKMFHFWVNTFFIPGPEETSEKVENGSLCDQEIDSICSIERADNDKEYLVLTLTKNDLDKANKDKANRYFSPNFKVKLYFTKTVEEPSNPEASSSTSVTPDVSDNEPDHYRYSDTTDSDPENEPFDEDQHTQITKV
# Sequence of UniProt O95159 (O95159 whole entry): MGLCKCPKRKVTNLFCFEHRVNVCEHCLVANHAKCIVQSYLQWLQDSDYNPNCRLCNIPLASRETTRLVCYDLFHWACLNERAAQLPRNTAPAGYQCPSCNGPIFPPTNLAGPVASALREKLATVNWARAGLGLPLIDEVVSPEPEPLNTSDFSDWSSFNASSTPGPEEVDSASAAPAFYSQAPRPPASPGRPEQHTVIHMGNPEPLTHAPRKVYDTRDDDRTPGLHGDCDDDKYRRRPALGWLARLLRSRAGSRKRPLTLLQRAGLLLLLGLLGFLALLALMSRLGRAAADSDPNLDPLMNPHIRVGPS
# Sequence of UniProt Q9H1C7 (Q9H1C7 whole entry): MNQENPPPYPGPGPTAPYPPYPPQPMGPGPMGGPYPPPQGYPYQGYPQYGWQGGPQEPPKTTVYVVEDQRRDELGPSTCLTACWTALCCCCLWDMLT
Target,"thermal stability z-score [1, 3]",thermal stability z-score ([1]; arsenate co-treatment: none),thermal stability z-score [2]
KIF3A (UniProt Q9Y496),-0.146,0.418,0.523
LEMD2 (UniProt Q8NC56),-1.14,-1.41,-0.503
GALNT2 (UniProt Q10471),-1.83,-1.16,0.25
EHBP1L1 (UniProt Q8N3D4),-0.423,-0.0281,-0.3
MUT (UniProt P22033),-0.252,-0.48,-1.02
NUBP2 (UniProt Q9Y5Y2),0.35,-0.855,-0.461
CASP4 (UniProt P49662),0.133,0.419,0.496
CYSTM1 (UniProt Q9H1C7),-0.79,0.912,-1.22
UPF1 (UniProt Q92900),0.222,-0.246,0.172
CD46 (UniProt P15529),-0.681,-0.571,-0.443
PDE8A (UniProt O60658),0.244,0.225,0.167
HEATR3 (UniProt Q7Z4Q2),-0.189,0.0325,0.285
WDR77 (UniProt Q9BQA1),-0.484,0.78,-0.717
TRIM33 (UniProt Q9UPN9),0.838,1.24,-0.3
BOD1L1 (UniProt Q8NFC6),0.583,0.352,-0.589
PCLO (UniProt Q9Y6V0),0.448,0.235,-0.0814
MCMBP (UniProt Q9BTE3),-0.129,-0.0734,0.409
PPP6R1 (UniProt Q9UPN7),-0.476,-0.635,-0.671
SSR4 (UniProt P51571),-1.7,-1.43,-0.649
TEX264 (UniProt Q9Y6I9),-0.151,-0.929,-0.568
FAM45BP|FAM45A,0.335,1.28,1.44
RLIM (UniProt Q9NVW2),-0.546,-0.0531,0.107
LPCAT2 (UniProt Q7L5N7),-0.337,0.245,0.944
PISD (UniProt Q9UG56),0.488,0.414,0.0415

Target,"thermal stability z-score [1, 3]",thermal stability z-score ([1]; arsenate co-treatment: none),thermal stability z-score [2]
GID8 (UniProt Q9NWU2),0.00199,0.0715,-0.0145
DENND1A (UniProt Q8TEH3),-0.118,-0.0262,-0.185
UAP1L1 (UniProt Q3KQV9),0.536,0.556,-0.793
COTL1 (UniProt Q14019),0.575,1.02,0.699
PLIN4 (UniProt Q96Q06),0.188,0.324,0.741
TMED3 (UniProt Q9Y3Q3),-0.694,-0.398,0.316
DCAF6 (UniProt Q58WW2),-0.747,-0.879,-0.72
TP53I3 (UniProt Q53FA7),0.135,-0.155,-0.359
GCHFR (UniProt P30047),-0.485,-0.374,0.0269
SH2D4A (UniProt Q9H788),0.0871,0.021,0.112
NEMP1 (UniProt O14524),-0.805,-0.823,0.154
TIFA (UniProt Q96CG3),-0.71,-0.0546,-0.879
COA1 (UniProt Q9GZY4),0.229,0.587,0.234
POLD1 (UniProt P28340),0.0404,-0.203,-0.1
DDX31 (UniProt Q9H8H2),0.19,0.0101,-0.348
STARD7 (UniProt Q9NQZ5),0.0874,1.42,1.07
BAIAP2 (UniProt Q9UQB8),0.142,0.0757,-0.138
ADO (UniProt Q96SZ5),1.62,1.31,-0.401
LUZP1 (UniProt Q86V48),-0.424,-0.079,-0.191
LLGL2 (UniProt Q6P1M3),-0.179,-0.122,-0.318
SH3GLB2 (UniProt Q9NR46),-0.0875,0.468,0.364
CLTC (UniProt Q00610),0.447,0.409,-0.263
MICAL3 (UniProt Q7RTP6),0.231,0.334,0.0242
AAMP (UniProt Q13685),0.409,-0.389,0.924

Target,"thermal stability z-score [1, 3]",thermal stability z-score ([1]; arsenate co-treatment: none),thermal stability z-score [2]
KPNB1 (UniProt Q14974),-0.211,0.374,0.0471
PAFAH1B1 (UniProt P43034),0.258,-0.161,-0.241
NUDT2 (UniProt P50583),-0.303,-0.0026,-0.0285
ATP5O (UniProt P48047),0.0702,-0.283,-0.119
ZFPL1 (UniProt O95159),-0.552,-1.06,-1.02
TPMT (UniProt P51580),0.308,0.31,-0.162
SRRT (UniProt Q9BXP5),0.06,0.206,-0.751
LMAN1 (UniProt P49257),-3.38,-2.78,0.757
AIDA (UniProt Q96BJ3),-0.00864,0.00569,-0.0785
NUDT3 (UniProt O95989),0.511,0.241,-0.213
SLC16A3 (UniProt O15427),0.645,0.712,0.351
NIT2 (UniProt Q9NQR4),0.25,0.109,0.0727
SKA2 (UniProt Q8WVK7),-0.397,-0.0647,-0.271
NELFA (UniProt Q9H3P2),-0.1,-0.0674,-0.107
PTEN (UniProt P60484),-0.0735,-0.0591,-0.185
CEP170 (UniProt Q5SW79),-0.0596,-0.496,1.21
ATP6V0A1 (UniProt Q93050),0.0809,0.332,0.705
HNRNPUL2 (UniProt Q1KMD3),0.105,0.057,-0.392
EIF2S2 (UniProt P20042),0.121,0.0416,-0.16
MRPL9 (UniProt Q9BYD2),-0.106,0.203,0.232
TICAM1 (UniProt Q8IUC6),-0.187,-0.204,-0.325
SUGT1 (UniProt Q9Y2Z0),0.611,0.585,0.388
TSPO,-0.334,0.17,0.892
PTGR1 (UniProt Q14914),1.49,1.67,0.672
